Laboratory results as given in ChEMBL document CHEMBL3091402, “Identification of clinical candidates from the benzazepine class of histamine H3 receptor antagonists” (Bioorg Med Chem Lett, 2013).
The source made the active and inactive calls. The calls are words filed in the database; no cut-off is given here.

What was measured:
Histamine H1 receptor = Histamine H1 receptor (Homo sapiens, UniProt P35367); assay: Binding affinity to human histamine H1 receptor
[1] = Ratio of drug level in brain to blood in rat at 3 mg/kg, po; format: ADME, organism-based; parameters: dose 3 mg/kg, route oral
Histamine H3 receptor [2] = biological target: T1, Histamine H3 receptor (Homo sapiens, UniProt Q9Y5N1); assay: Antagonist activity at human histamine H3 receptor expressed in CHOK1 cells assessed as inhibition of GTPgammaS binding; format: functional, cell-based, CHO-K1
T1 sequence (Q9Y5N1 whole entry): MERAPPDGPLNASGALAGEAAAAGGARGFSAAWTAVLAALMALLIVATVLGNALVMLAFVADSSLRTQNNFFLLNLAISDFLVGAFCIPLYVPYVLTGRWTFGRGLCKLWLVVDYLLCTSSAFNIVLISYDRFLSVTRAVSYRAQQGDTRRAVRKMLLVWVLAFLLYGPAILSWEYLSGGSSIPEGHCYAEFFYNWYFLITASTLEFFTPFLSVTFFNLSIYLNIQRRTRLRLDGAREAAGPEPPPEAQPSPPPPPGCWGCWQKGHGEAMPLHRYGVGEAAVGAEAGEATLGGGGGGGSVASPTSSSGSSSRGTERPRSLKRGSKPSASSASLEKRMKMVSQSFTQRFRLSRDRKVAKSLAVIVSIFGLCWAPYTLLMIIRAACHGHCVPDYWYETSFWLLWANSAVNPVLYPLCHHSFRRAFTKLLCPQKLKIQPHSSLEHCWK

[3] = Terminal half life in po dosed Beagle dog; format: ADME, organism-based, Canis lupus familiaris; conditions: in vivo, read-out: beta t1/2 (converted)
[4] = Cmax in po dosed Beagle dog; format: ADME, organism-based, Canis lupus familiaris; parameters: route oral; conditions: in vivo
[5] = Ratio of drug level in brain to blood in iv dosed Sprague-Dawley rat; format: ADME, organism-based
Histamine H2 receptor = Histamine H2 receptor (Homo sapiens, UniProt P25021); assay: Binding affinity to human histamine H2 receptor
Sequence of Histamine H2 receptor (P25021 whole entry): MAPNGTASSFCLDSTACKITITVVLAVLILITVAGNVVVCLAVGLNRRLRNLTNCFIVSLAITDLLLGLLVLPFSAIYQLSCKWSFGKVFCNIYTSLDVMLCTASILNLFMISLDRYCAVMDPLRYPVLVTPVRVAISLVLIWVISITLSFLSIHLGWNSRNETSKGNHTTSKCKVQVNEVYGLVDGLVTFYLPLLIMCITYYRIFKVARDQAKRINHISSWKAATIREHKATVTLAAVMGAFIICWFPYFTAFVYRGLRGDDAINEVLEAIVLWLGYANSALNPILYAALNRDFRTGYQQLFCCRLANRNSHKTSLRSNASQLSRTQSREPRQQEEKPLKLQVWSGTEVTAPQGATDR

Blood = assay: Drug level in rat blood at 3 mg/kg, po; format: ADME, organism-based; parameters: dose 3 mg/kg, route oral; conditions: in vivo, read-out: Drug uptake
Histamine H3 receptor [6] = biological target: T2, Histamine H3 receptor (Rattus norvegicus, UniProt Q9QYN8); assay: Displacement of [3H]-R-alpha-ethylhistamine from rat histamine H3 receptor expressed in HEK293 cells after 45 mins by liquid scintillation spectrometry; format: cell-based
T2 sequence (Q9QYN8 whole entry): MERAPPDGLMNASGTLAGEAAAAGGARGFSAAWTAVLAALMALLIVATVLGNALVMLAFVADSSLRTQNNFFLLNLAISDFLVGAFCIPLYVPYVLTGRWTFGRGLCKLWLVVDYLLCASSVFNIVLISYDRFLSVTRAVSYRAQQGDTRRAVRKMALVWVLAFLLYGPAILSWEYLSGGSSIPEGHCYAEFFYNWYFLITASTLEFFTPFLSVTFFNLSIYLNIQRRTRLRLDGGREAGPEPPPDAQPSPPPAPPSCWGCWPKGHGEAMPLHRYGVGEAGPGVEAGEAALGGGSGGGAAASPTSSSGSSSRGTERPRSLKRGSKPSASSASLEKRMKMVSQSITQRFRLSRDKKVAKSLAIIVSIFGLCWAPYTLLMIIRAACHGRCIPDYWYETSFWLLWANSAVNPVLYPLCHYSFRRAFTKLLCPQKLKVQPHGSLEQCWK

[7] = Cmax in iv dosed Beagle dog; format: ADME, organism-based, Canis lupus familiaris; parameters: route intravenous; conditions: in vivo
[8] = Oral bioavailability in cynomolgus monkey; format: ADME, organism-based, Macaca fascicularis; conditions: in vivo
[9] = Cmax in iv dosed Sprague-Dawley rat; format: ADME, organism-based; parameters: route intravenous; conditions: in vivo
Rattus norvegicus [10] = assay: Reversal of RAMH-induced dipsogenia in po dosed Lister Hooded rat treated 2 hrs before RAMH challenge measured after 1 hr; format: functional
[11] = Cmax in po dosed cynomolgus monkey; format: ADME, organism-based, Macaca fascicularis; parameters: route oral; conditions: in vivo
Rattus norvegicus [12] = assay: Cognitive enhancing effect against scopolamine-induced memory deficit in po dosed Wistar rat assessed as passive avoidance response after 24 hrs; format: functional, organism-based
Histamine H3 receptor [13] = biological target: T1, Histamine H3 receptor; assay: Displacement of [3H]-R-alpha-ethylhistamine from human histamine H3 receptor expressed in HEK293 cells after 45 mins by liquid scintillation spectrometry
[14] = Terminal half life in po dosed Sprague-Dawley rat; format: ADME, organism-based; conditions: in vivo, read-out: beta t1/2 (converted)
[15] = Tmax in po dosed Beagle dog; format: ADME, organism-based, Canis lupus familiaris; conditions: in vivo
[16] = Total blood clearance in iv dosed Beagle dog; format: ADME, organism-based, Canis lupus familiaris; conditions: whole blood
[17] = Total blood clearance in iv dosed cynomolgus monkey; format: ADME, organism-based, Macaca fascicularis; conditions: whole blood
[18] = Time dependent inhibition of CYP450 (unknown origin); format: ADME, Homo sapiens
Liver microsome [19] = assay: Intrinsic clearance in human liver microsomes; format: ADME
[20] = Terminal half life in iv dosed Sprague-Dawley rat; format: ADME, organism-based; conditions: in vivo, read-out: beta t1/2 (converted)
[21] = Aqueous solubility of the compound; format: physicochemical
[22] = Oral bioavailability in Beagle dog; format: ADME, organism-based, Canis lupus familiaris; conditions: in vivo
Histamine H4 receptor = Histamine H4 receptor (Homo sapiens, UniProt Q9H3N8); assay: Binding affinity to human histamine H4 receptor
Sequence of Histamine H4 receptor (Q9H3N8 whole entry): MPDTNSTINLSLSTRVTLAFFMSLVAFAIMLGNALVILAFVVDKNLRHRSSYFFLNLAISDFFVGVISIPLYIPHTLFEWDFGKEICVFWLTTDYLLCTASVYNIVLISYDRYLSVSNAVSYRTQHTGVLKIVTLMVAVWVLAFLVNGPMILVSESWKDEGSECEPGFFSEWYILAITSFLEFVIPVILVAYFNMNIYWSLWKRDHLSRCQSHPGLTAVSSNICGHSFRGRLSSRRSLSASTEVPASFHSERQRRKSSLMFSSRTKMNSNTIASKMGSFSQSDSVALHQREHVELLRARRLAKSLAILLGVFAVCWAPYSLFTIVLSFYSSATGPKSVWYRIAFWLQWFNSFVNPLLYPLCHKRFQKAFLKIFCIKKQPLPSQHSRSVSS

[23] = Volume of distribution at steady-state in iv dosed Beagle dog; format: ADME, organism-based, Canis lupus familiaris; conditions: in vivo, read-out: Vdss
[24] = Volume of distribution at steady-state in iv dosed Sprague-Dawley rat; format: ADME, organism-based; conditions: in vivo, read-out: Vdss
[25] = Volume of distribution at steady-state in iv dosed cynomolgus monkey; format: ADME, organism-based, Macaca fascicularis; conditions: in vivo, read-out: Vdss
Liver microsome [26] = assay: Intrinsic clearance in rat liver microsomes; format: ADME
[27] = Terminal half life in iv dosed cynomolgus monkey; format: ADME, organism-based, Macaca fascicularis; conditions: in vivo, read-out: beta t1/2 (converted)
[28] = Total blood clearance in iv dosed Sprague-Dawley rat; format: ADME, organism-based; conditions: whole blood
Rattus norvegicus [29] = assay: Ex vivo binding affinity to histamine H3 receptor in po dosed rat cerebral cortex using [3H]-R-alpha-ethylhistamine after 2 hrs by HPLC analysis; format: functional
Histamine H3 receptor [30] = biological target: T2, Histamine H3 receptor; assay: Displacement of [3H]-R-alpha-ethylhistamine from histamine H3 receptor in rat cerebral cortical tissue membranes after 45 mins by liquid scintillation spectrometry
Rattus norvegicus [31] = assay: Cognitive enhancing effect against scopolamine-induced memory deficit in Wistar rat assessed as passive avoidance response at 3 mg/kg, po after 24 hrs; format: functional, organism-based; parameters: dose 3 mg/kg
[32] = Cmax in iv dosed cynomolgus monkey; format: ADME, organism-based, Macaca fascicularis; parameters: route intravenous; conditions: in vivo
[33] = Oral bioavailability in Sprague-Dawley rat; format: ADME, organism-based; conditions: in vivo
hERG (KCNH2) = hERG (KCNH2) (Homo sapiens, UniProt Q12809); assay: Inhibition of human ERG at 10 uM by patch clamp experiment
Sequence of hERG (KCNH2) (Q12809 whole entry): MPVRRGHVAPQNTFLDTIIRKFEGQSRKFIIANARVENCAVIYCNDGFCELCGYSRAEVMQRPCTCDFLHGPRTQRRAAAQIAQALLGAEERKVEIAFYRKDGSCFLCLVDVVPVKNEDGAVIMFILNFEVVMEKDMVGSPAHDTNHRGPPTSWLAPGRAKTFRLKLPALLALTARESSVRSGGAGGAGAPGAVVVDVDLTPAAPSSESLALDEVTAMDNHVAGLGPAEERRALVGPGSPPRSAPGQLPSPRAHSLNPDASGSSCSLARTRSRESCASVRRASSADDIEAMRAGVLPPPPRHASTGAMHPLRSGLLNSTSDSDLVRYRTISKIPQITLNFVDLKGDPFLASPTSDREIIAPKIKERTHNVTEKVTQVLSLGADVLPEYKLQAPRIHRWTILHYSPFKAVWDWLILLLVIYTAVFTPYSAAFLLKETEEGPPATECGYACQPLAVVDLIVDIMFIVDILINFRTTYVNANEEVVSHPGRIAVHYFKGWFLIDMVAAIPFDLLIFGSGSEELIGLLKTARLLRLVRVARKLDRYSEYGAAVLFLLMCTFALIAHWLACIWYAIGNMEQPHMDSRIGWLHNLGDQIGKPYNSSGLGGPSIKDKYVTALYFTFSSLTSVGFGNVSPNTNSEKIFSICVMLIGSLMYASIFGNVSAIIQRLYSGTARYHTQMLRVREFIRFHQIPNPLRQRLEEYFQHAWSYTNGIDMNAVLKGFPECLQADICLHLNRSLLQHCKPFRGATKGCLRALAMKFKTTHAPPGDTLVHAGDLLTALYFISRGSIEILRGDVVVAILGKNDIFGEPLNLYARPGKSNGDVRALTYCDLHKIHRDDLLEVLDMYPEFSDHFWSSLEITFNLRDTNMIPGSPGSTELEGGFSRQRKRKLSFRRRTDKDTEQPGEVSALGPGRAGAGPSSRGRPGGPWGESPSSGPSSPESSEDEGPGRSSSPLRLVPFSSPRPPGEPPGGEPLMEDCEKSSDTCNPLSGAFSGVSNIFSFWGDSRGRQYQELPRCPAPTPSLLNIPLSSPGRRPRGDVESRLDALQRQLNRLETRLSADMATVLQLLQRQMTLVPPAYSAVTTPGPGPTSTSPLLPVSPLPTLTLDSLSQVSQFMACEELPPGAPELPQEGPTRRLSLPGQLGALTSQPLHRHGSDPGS

[34] = Cmax in po dosed Sprague-Dawley rat; format: ADME, organism-based; parameters: route oral; conditions: in vivo
[35] = Terminal half life in iv dosed Beagle dog; format: ADME, organism-based, Canis lupus familiaris; conditions: in vivo, read-out: beta t1/2 (converted)
[36] = Ratio of drug level in brain to blood in human; format: ADME, tissue-based
[37] = Tmax in po dosed Sprague-Dawley rat; format: ADME, organism-based; conditions: in vivo
Histamine H3 receptor [38] = biological target: T1, Histamine H3 receptor; assay: Displacement of [3H]-R-alpha-ethylhistamine from histamine H3 receptor in human cerebral cortical tissue membranes after 45 mins by liquid scintillation spectrometry
[39] = Tmax in po dosed cynomolgus monkey; format: ADME, organism-based, Macaca fascicularis; conditions: in vivo
Rattus norvegicus [40] = species: Rattus norvegicus; assay: Ex vivo receptor occupancy of histamine H3 receptor in rat brain; format: functional, organism-based
Rattus norvegicus [41] = assay: Cognitive enhancing effect in Lister Hooded rat assessed as increase of time spent exploring novel versus familiar objects in T2 at 0.3 to 1 mg/kg, po bid; format: functional, organism-based
[42] = Terminal half life in po dosed cynomolgus monkey; format: ADME, organism-based, Macaca fascicularis; conditions: in vivo, read-out: beta t1/2 (converted)
Rattus norvegicus [43] = assay: Ex vivo binding affinity to histamine H3 receptor in rat cerebral cortex using [3H]-R-alpha-ethylhistamine at 3 mg/kg, po after 3 hrs by HPLC analysis; format: functional

Sequence of Histamine H1 receptor (P35367 whole entry): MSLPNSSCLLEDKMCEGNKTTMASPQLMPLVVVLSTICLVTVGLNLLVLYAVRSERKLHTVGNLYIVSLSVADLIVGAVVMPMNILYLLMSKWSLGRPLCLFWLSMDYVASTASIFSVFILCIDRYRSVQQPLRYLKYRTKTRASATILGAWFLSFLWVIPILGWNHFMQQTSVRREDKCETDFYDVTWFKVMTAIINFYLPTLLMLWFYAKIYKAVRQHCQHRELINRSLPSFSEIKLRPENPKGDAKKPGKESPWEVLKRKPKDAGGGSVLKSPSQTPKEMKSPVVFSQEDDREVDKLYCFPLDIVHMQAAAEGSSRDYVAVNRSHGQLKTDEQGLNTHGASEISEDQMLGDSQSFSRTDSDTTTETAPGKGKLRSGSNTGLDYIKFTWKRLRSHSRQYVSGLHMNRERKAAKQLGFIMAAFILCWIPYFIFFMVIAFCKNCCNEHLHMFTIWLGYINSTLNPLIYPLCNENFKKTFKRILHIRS

O=C1CCCN1c1ccc(Oc2ccc3c(c2)CCN(C2CCC2)CC3)nc1 [GSK239512]
Ki (Histamine H1 receptor): 2510 nM
Kp [1]: 1
Ki (Histamine H3 receptor [2]): 0.1 nM
half-life [3]: 1.8 h
Cmax [4]: 120 nM
Kp [5]: 1.83
Ki (Histamine H2 receptor): > 3160 nM
concentration (Blood): 410 nM
Ki (Histamine H3 receptor [6]): 0.148 nM
Cmax [7]: 393 nM
bioavailability [8]: 55%
Cmax [9]: 671 nM
ED50 (Rattus norvegicus [10]): 0.04 mg/kg
Cmax [11]: 145 nM
Activity (Rattus norvegicus [12]): Dose-dependent effect
Ki (Histamine H3 receptor [13]): 0.204 nM
half-life [14]: 2.1 h
Tmax [15]: 0.7 h
clearance [16]: 22 mL/min/kg
clearance [17]: 28 mL/min/kg
IC50 [18]: > 10000 nM
CLH (Liver microsome [19]): 0.6 mL/min/g
half-life [20]: 1.2 h
solubility [21]: > 10000 µg/mL
bioavailability [22]: 33%
Ki (Histamine H4 receptor): > 3160 nM
Vd [23]: 2.8 L/kg
Vd [24]: 3.1 L/kg
Vd [25]: 3.2 L/kg
CLH (Liver microsome [26]): 1.6 mL/min/g
half-life [27]: 1.7 h
clearance [28]: 39 mL/min/kg
ED50 (Rattus norvegicus [29]): 0.08 mg/kg
Ki (Histamine H3 receptor [30]): 0.363 nM
Activity (Rattus norvegicus [31]): Active
Cmax [32]: 383 nM
bioavailability [33]: 51%
inhibition at 10 µM (hERG (KCNH2)): < 10%
Cmax [34]: 348 nM
half-life [35]: 1.7 h
Kp [36]: 1.83
Tmax [37]: 1 h
Ki (Histamine H3 receptor [38]): 0.12 nM
Tmax [39]: 1.3 h
EC50 (Rattus norvegicus [40]): 15 nM
Activity (Rattus norvegicus [41]): Active
half-life [42]: 1.7 h
Activity (Rattus norvegicus [43]): 95%
